Test [1] concerns grammpositive und grammnegative Kokken. Description: in vitro antibacterial activity against cocci. It is filed as cell-based. The following applies: at the lowest tested concentration (0,01 mcg/ml). The text has this:
(§1) Diese neuen Verbindungen zeichnen sich durch ihre wertvollen pharmakologischen Eigenschaften aus: so besitzen sie gemäss den Resultaten in vitro antibiotische, insbesondere antibakterielle Eigenschaften, wie z.B. einerseits gegen grammpositive und grammnegative Kokken, wie Staphylococcus aureus, Streptococcus pyogenes, Streptococcus pneumoniae, Neisseria meningitis, Neisseria gonorhoae (im getesteten Konzentrationsbereich 0,01 bis 8 mcg/ml), andererseits gegen grammnegative Stäbchenbakterien, wie Enterobacteriaceae, Pseudomonas aeruginosa, Haemophilus influenzae (im getesteten Konzentrationsbereich von 0,01 bis […]).

Test [2] relates to grammnegative Stäbchenbakterien. Description: in vitro antibacterial activity against gram-negative rod bacteria. The format is cell-based. The conditions noted are these: at the lowest tested concentration (0,01 mg/ml).
Text: as §1

Take “3-(2-Methoxyäthoxy)-rifamycin-S [3-(2-Methoxyäthyl)-rifamycin-S]”: the Hemmwirkung entry in test [1] and in test [2] was “deutliche Hemmwirkung” throughout.

For “3-Benzoyloxyrifamycin-S [3-Benzoylrifamycin-S]”, the Hemmwirkung result in test [1] and in test [2] was “deutliche Hemmwirkung” each time.

For `COC1C=COC2(C)Oc3c(C)c(O)c4c(c3C2=O)C(=O)C(OC(C)=O)=C(NC(=O)C(C)=CC=CC(C)C(O)C(C)C(O)C(C)C(OC(C)=O)C1C)C4=O` (stereo not shown) [3-Acetoxyrifamycin-S], the Hemmwirkung entry in test [1] and in test [2] was “deutliche Hemmwirkung” throughout.

For `COC1=C2NC(=O)C(C)=CC=CC(C)C(O)C(C)C(O)C(C)C(OC(C)=O)C(C)C(OC)C=COC3(C)Oc4c(C)c(O)c(c(c4C3=O)C1=O)C2=O` (stereo not shown) [3-Methoxyrifamycin-S], the Hemmwirkung entry in test [1] and in test [2] was “deutliche Hemmwirkung” each time.

On to `COC1C=COC2(C)Oc3c(C)c(O)c4c(c3C2=O)C(=O)C(Oc2ccccc2)=C(NC(=O)C(C)=CC=CC(C)C(O)C(C)C(O)C(C)C(OC(C)=O)C1C)C4=O` (stereo not shown) [3-Phenoxyrifamycin-S], for which the Hemmwirkung result in test [1] and in test [2] was “deutliche Hemmwirkung” throughout.

These data come from patent publication EP0023885A1, “Method for the introduction of an oxygen-containing functional group into ansamycines, compounds thus obtained, and pharmaceutical compositions containing them” (CIBA-GEIGY AG, priority 1979, dated 1981).
